Experimental data from patent publication US20250352486A1, “NANOPARTICLES FOR USE IN THE TREATMENT OF INFECTIONS CAUSED BY BIOFILMS” (Universitat Politècnica De València, priority 2022, published 2025).

Legend:
Assay type in all cases: cell-based
[1] = tested on: Candida albicans biofilms; assay: Eradication of mature Candida albicans biofilms (xCELLigence); details: mature biofilms at 24 h; micafungin 1.5 μg/ml plus zymolyase 171 μg/ml, or 0.15% hydrogen peroxide
Method: Effect of platinum and mesoporous silica nanoparticles on the eradication of mature Candida albicans biofilms. C. albicans biofilms were cultured in the micro dilution plates of the xCELLigence system for 24 h and then treated with a combination of free micafungin together with zymolyase (an enzyme with the ability to disperse biofilm-forming cells), indicated in the legend as MZ, or with nanoparticles loaded with the antifungal micafungin and anchored with the enzyme zymolyase. […] The black curve represents the growth of the untreated biofilm and the black arrow indicates the time when the treatment was added.

[2] = tested on: endodontic biofilms from root canals; assay: Disruption of endodontic biofilms (xCELLigence); details: 16 μg/ml in suspension, added after 6 h of growth
Method: FIG. 4.1. Disruption of endodontic biofilms using platinum and silica nanoparticles loaded with metronidazole. Endodontic biofilms were cultured in the xCELLigence system and after 6 hours of growth they were treated with 1 mg/ml of nanoparticles containing 2.25 μg of metronidazole, or with metronidazole in suspension at a concentration of 16 μg/ml, and compared to the untreated control (black curve). The black arrow indicates the time when the biofilm was treated. The biofilm comes from root canal samples extracted during a root canal and contains a complex microbial community formed by dozens of bacteria that cause this infection. Endodontic biofilms from root canals were collected with sterile files and placed in 1 ml of VMG (Ill) transport medium ([…] et al., 1993). Subsequently, the samples were transported to the laboratory where they were subjected to stirring for 3 minutes. Then, the files were extracted, the samples were centrifuged for 5 min at 10,000 rpm and the supernatant was discarded. The obtained pellet was resuspended with 1 ml of BHI (brain-heart infusion) culture medium and the samples were cultured in micro dilution plates of the xCELLigence impedance measurement system for 6 h, following the protocol described by Mira et al. 2019 (J Oral Microbiol). […]

[3] = tested on: polymicrobial oral biofilms (dental plaque); assay: Effect on preformed oral biofilms derived from saliva (xCELLigence); details: 16 μg/ml, two donors (A, B)
Method: FIG. 5.1. Effect of platinum and mesoporous silica nanoparticles loaded with metronidazole on preformed oral biofilms derived from saliva samples of two independent donors (A and B). The biofilms were grown in the xCELLigence system for 6 hours, and subsequently treated with metronidazole in suspension (concentration of 16 μg/ml) or with nanoparticles loaded with metronidazole (1 mg/ml of nanoparticles containing 2.25 μg metronidazole). The black arrows indicate the time when the treatment was added, whereas the black curves represent the untreated control. The biofilm comes from saliva samples and contains a complex microbial community made up of dozens of dental plaque-forming bacteria. To investigate the effect of platinum (Pt) and mesoporous silica nanoparticles on polymicrobial oral biofilms (dental plaque), biofilms derived from the saliva of two independent donors were cultured in the xCELLigence system for 6 hours, following the protocol described by Mira et al. 2019 (J Oral Microbiol). Subsequently, free metronidazole (at a concentration of 16 μg/ml), or nanoparticles with metronidazole (1 mg/ml of nanoparticles containing 2.25 μg of metronidazole) was added to evaluate the effect on said biofilms. […]

SMILES	effect on biofilm formation [1]	more biofilm formation compared to the untreated control [2]	effect on salivary biofilm growth [3]
OO [hydrogen peroxide]	induced the formation of biofilms	–	–
Cc1ncc([N+](=O)[O-])n1CCO [metronidazole]	–	up to 15%	induction of biofilm growth
